In one experiment the test system is SW-620. The experiment can be described thus: Induction of apoptosis in TRAIL-resistant human SW620 cells assessed as pro-apoptotic cells at 50 uM after 24 hrs by annexin-V staining. It counts as functional.
Experiment [1] has as its system THP-1. Description: Induction of apoptosis in TRAIL-resistant human THP1 cells assessed as pro-apoptotic cells at 50 uM after 24 hrs by annexin-V staining. It counts as functional.
Experiment [2] has as its system THP-1. The experiment can be described thus: Induction of apoptosis in TRAIL-resistant human THP1 cells after 24 hrs by annexin-V staining. The following applies: THP-1, 24 h. It counts as functional, cell-based.
The subject of experiment [3] is THP-1. Description: Induction of apoptosis in TRAIL-resistant human THP1 cells assessed as inhibition of caspase-8 activity. It is filed as functional.

Regarding `CCCCCC1(CCCCC)O[C@H]2C=C(CO)[C@]3(O)[C@@H]4OC(C)(C)O[C@@]45CCC[C@@H]4[C@@H]1[C@@H]2[C@@]453`, the Activity in the experiment with SW-620 and in the experiment with THP-1 [1] was 5% throughout.

By EC50 is commonly meant the midpoint of the concentration-response curve. Consider `CC(C)CC(O)(CC(C)C)[C@@H]1/C=C\C=C(\CO)C2=C([C@H]3OC(C)(C)O[C@@H]23)[C@H]1c1ccccc1` (relative stereo), for which the Activity with SW-620 was 66%; with THP-1 [1], 97%. Also, the EC50 with THP-1 [2] came to 32.4 µM.

With `CC1(C)O[C@@H]2C3=C(/C(CO)=C\C=C/[C@@H](CCc4ccccc4)[C@@H]3c3ccccc3)[C@@H]2O1` (relative stereo), the Activity in the experiment on SW-620 is on record as 58%; with THP-1 [1], 98%. Besides, it took 49.3 µM to reach a half-maximal effect in the experiment with THP-1 [2] (EC50).

Turning to `CC1(C)O[C@@H]2C3=C(/C(CO)=C\C=C/[C@@H](C4(O)CCCCC4)[C@@H]3c3ccccc3)[C@@H]2O1`, the Activity with SW-620 is 10%; in the experiment on THP-1 [1] it was 3%.

On to `CC1(C)O[C@@H]2[C@]3(CCC[C@@H]4[C@H]5CO[C@H]6C=C(CO)[C@@]2(O)[C@]43[C@@H]56)O1`, for which the Activity was 4% in the experiment on SW-620 and 94% in the experiment on THP-1 [1].

As to `CCCCC1(CCCC)O[C@H]2C=C(CO)[C@]3(O)[C@@H]4OC(C)(C)O[C@@]45CCC[C@@H]4[C@@H]1[C@@H]2[C@@]453`, the values for the Activity in the experiment with SW-620 and with THP-1 [1] were 5% and 15%, respectively.

Consider `CC1=C(O)C(=O)C=C2C1=CC=C1[C@@]2(C)CC[C@@]2(C)[C@@H]3C[C@](C)(C(=O)O)CC[C@]3(C)CC[C@]12C` [CELASTROL], for which the Activity with SW-620 and in the experiment on THP-1 [1] was 99% each time. Moreover, the EC50 with THP-1 [2] turned out to be 15 µM. In addition, the “inhibition (INH)” value in the experiment on THP-1 [3] is 90%.

Regarding `CC1(C)O[C@@H]2C3=C(/C(CO)=C\C=C/[C@@H](C(C)(C)O)[C@@H]3c3ccccc3)[C@@H]2O1` (relative stereo), the Activity with SW-620 stood at 15%; in the experiment on THP-1 [1], 2%.

With `CC1(C)O[C@H]2C3=C4[C@@H](CCCC[C@@]42O1)[C@H](C1(O)CCCC1)/C=C\C=C/3CO`, the Activity was 22% with SW-620 and 2% with THP-1 [1].

As to `CC1(C)O[C@@H]2[C@]3(CCC[C@@H]4[C@@H]5[C@H]6[C@H](C=C(CO)[C@@]2(O)[C@]643)OC5(C)C)O1`, the Activity is listed as 4% in the experiment with SW-620 and 29% with THP-1 [1].

As to `CCCCCC[C@@H]1/C=C\C=C(\CO)C2=C3[C@H]1CCCC[C@@]31OC(C)(C)O[C@@H]21`, the Activity was found to be 70% with SW-620 and 20% in the experiment on THP-1 [1]. In addition, the “inhibition (INH)” value in the experiment on THP-1 [3] is 90%.

As to `CCCCCC[C@@H]1/C=C\C=C(\CO)C2=C([C@H]3OC(C)(C)O[C@@H]23)[C@H]1c1ccccc1`, the Activity with SW-620 stood at 70%; with THP-1 [1], 97%. In the experiment with THP-1 [2], the midpoint of the response, the EC50, lay at 52.9 µM.

For the compound `CC(C)CC(O)(CC(C)C)[C@@H]1/C=C\C=C(\CO)C2=C3[C@H]1CCCC[C@@]31OC(C)(C)O[C@@H]21`, the Activity is 68% in the experiment with SW-620 and 36% in the experiment on THP-1 [1]. Moreover, the “inhibition (INH)” value in the experiment on THP-1 [3] came out at 90%.

Take `CC1(C)O[C@H]2C3=C4[C@@H](CCCC[C@@]42O1)[C@H](C1(O)CCCCC1)/C=C\C=C/3CO`: the Activity with SW-620 is 17%; in the experiment on THP-1 [1], 2%.

Consider `CC1(C)O[C@@H]2C3=C(/C(CO)=C\C=C/[C@@H](C4(O)CCCC4)[C@@H]3c3ccccc3)[C@@H]2O1`, for which the Activity with SW-620 came out at 12%; in the experiment on THP-1 [1], 3%.

Consider `CC(C)CC1(CC(C)C)O[C@H]2C=C(CO)[C@]3(O)[C@@H]4OC(C)(C)O[C@@]45CCC[C@@H]4[C@@H]1[C@@H]2[C@@]453`, for which the Activity in the experiment with SW-620 was 13%; in the experiment with THP-1 [1] it was 83%.

For `CC1(C)O[C@H]2C3=C4[C@@H](CCCC[C@@]42O1)[C@H](CCc1ccccc1)/C=C\C=C/3CO`, the Activity in the experiment on SW-620 was found to be 23%; in the experiment on THP-1 [1] it was 10%.

As to `CC1(C)O[C@H]2C3=C4[C@@H](CCCC[C@@]42O1)[C@H](C(C)(C)O)/C=C\C=C/3CO`, the values for the Activity in the experiment with SW-620 and in the experiment with THP-1 [1] were 16% and 2%, respectively.

As to `CC1(C)O[C@H]2C3=C4[C@@H](CCC[C@@]42O1)[C@H](C(C)(C)O)/C=C\C=C/3CO`, the results for the Activity with SW-620 and in the experiment with THP-1 [1] were 12% and 2%, respectively.

These data come from ChEMBL document CHEMBL1268895, “Synthesis of exotic polycycles such as cyclooctatrienes and fenestrenes with differential pro-apoptotic activities on human TRAIL-resistant metastatic cell lines” (Bioorg Med Chem Lett, 2010).
